The values below come from patent publication US8404708B2, “Dual NK1/NK3 receptor antagonists” (Hoffmann-La Roche Inc., priority 2004, dated 2013).

Read-outs that look alike come from different tables or passages of the source.

The target of one assay is human NK1 receptor (Homo sapiens, UniProt P25103). As to the kind of experiment: NK1 receptor binding, [3H]substance P displacement, CHO cell membranes.
Assay [1] addresses T1, Recombinant human NK3 (hNK3) receptor (Homo sapiens, UniProt P29371).
T1 construct: expressed in transfected cells
T1 sequence (P29371 1-465): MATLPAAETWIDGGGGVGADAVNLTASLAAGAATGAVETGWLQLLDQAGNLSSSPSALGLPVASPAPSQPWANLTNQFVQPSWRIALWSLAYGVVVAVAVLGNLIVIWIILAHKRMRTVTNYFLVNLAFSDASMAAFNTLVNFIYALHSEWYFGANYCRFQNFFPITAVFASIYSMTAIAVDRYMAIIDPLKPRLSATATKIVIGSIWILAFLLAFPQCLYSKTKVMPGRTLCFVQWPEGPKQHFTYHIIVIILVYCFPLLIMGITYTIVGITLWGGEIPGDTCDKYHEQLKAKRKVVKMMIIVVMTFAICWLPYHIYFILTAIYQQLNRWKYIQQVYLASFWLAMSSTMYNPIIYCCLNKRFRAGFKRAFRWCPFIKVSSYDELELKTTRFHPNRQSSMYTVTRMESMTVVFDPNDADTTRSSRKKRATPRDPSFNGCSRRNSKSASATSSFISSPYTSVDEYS
Briefly: NK3 receptor binding, [3H]SR142801 displacement, membrane preparations. In outline:
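Room-temperature, 90-min filtration binding assay using about 2.5 μg recombinant receptor membranes per well; separation on polyethyleneimine-treated glass-fibre (GF/C) filters and liquid scintillation read-out, with 10 μM SB222200 for nonspecific binding.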

Setting [2] is: first value of the cell pKi NK1/NK3, human NK1 receptor, [3H]substance P.
Where [3] appears, read: second value of the cell pKi NK1/NK3, hNK3 receptor, [3H]SR142801.
Where [4] appears, read: first value of the cell NK1/NK3, read-out: pKi NK1 (converted).
The mark [5] stands for this setting: second value of the cell NK1/NK3, read-out: pKi NK3 (converted).

Chain of human NK1 receptor (P25103 whole entry): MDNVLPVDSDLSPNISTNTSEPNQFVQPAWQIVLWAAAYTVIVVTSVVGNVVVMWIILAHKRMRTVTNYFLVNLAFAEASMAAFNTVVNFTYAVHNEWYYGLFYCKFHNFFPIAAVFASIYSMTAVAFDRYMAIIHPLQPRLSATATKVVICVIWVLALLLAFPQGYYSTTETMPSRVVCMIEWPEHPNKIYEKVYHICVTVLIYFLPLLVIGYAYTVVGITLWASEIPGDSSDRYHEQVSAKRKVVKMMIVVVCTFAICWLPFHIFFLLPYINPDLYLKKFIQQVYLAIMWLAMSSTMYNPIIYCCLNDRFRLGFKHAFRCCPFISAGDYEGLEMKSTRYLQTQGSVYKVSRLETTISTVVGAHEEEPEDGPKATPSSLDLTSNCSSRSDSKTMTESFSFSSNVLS

As for `CN(C(=O)C(C)(C)c1cc(C(F)(F)F)cc(C(F)(F)F)c1)c1cnc(N2CCN(C(=O)C3CC3)CC2)cc1-c1ccccc1Cl` [Example 62, 2-(3,5-Bis-trifluoromethyl-phenyl)-N-[4-(2-chloro-phenyl)-6-(4-cyclopropanecarbonyl-piperazin-1-yl)-pyridin-3-yl]-N-methyl-isobutyramide], the Ki was 1.02 nM at human NK1 receptor (setting [2]) and 6.61 nM in assay [1] (setting [3]).
On to `CN(C(=O)C(C)(C)c1cc(C(F)(F)F)cc(C(F)(F)F)c1)c1cnc(N2C[C@H](O)C[C@H]2CO)cc1-c1ccccc1` [Example 201, (2S,4R)-2-(3,5-Bis-trifluoromethyl-phenyl)-N-[6-(4-hydroxy-2-hydroxymethyl-pyrrolidin-1-yl)-4-phenyl-pyridin-3-yl]-N-methyl-isobutyramide], for which the Ki at human NK1 receptor (setting [2]) is 1.48 nM; in assay [1] (setting [3]), 8.71 nM.
With `Cc1ccccc1-c1cc(N2C[C@H](O)[C@@H](O)C2)ncc1N(C)C(=O)C(C)(C)c1cc(C(F)(F)F)cc(C(F)(F)F)c1` [Example 183, (3S,4S)-2-(3,5-Bis-trifluoromethyl-phenyl)-N-[6-(3,4-dihydroxy-pyrrolidin-1-yl)-4-o-tolyl-pyridin-3-yl]-N-methyl-isobutyramide], the Ki on human NK1 receptor (setting [2]) is 1.1 nM; in assay [1] (setting [3]) it was 26.9 nM.
For `CN(C(=O)C(C)(C)c1cc(C(F)(F)F)cc(C(F)(F)F)c1)c1cnc(NC[C@@H](O)CO)cc1-c1ccccc1Cl` [Example 126, (R)-2-(3,5-Bis-trifluoromethyl-phenyl)-N-[4-(2-chloro-phenyl)-6-(2,3-dihydroxy-propylamino)-pyridin-3-yl]-N-methyl-isobutyramide], the values for the Ki (on human NK1 receptor (setting [2]); in assay [1] (setting [3])) were 2.51 nM and 7.76 nM, respectively.
For `CN(C(=O)C(C)(C)c1cc(C(F)(F)F)cc(C(F)(F)F)c1)c1cnc(N2CC[C@H](O)[C@@H](CO)C2)cc1-c1ccccc1Cl` (racemic) [Example 193, (3RS,4SR)-2-(3,5-Bis-trifluoromethyl-phenyl)-N-[4′-(2-chloro-phenyl)-4-hydroxy-3-hydroxymethyl-3,4,5,6-tetrahydro-2H-[1,2′]bipyridinyl-5′-yl]-N-methyl-isobutyramide] the same measures were 1.45 nM and 12 nM.
With `CN(C(=O)C(C)(C)c1cc(C(F)(F)F)cc(C(F)(F)F)c1)c1cnc(N2CCC[C@@H]2CO)cc1-c1ccccc1Cl` [Example 41, (R)-2-(3,5-Bis-trifluoromethyl-phenyl)-N-[4-(2-chloro-phenyl)-6-(2-hydroxymethyl-pyrrolidin-1-yl)-pyridin-3-yl]-N-methyl-isobutyramide], the Ki at human NK1 receptor (setting [2]) was 1.07 nM; in assay [1] (setting [3]), 7.59 nM.
On to `Cc1ccccc1-c1cc(N2C[C@@H](F)C[C@H]2CO)ncc1N(C)C(=O)C(C)(C)c1cc(C(F)(F)F)cc(C(F)(F)F)c1` [Example 297, (2S,4S)-2-(3,5-Bis-trifluoromethyl-phenyl)-N-[6-(4-fluoro-2-hydroxymethyl-pyrrolidin-1-yl)-4-o-tolyl-pyridin-3-yl]-N-methyl-isobutyramide], for which the Ki was 2.88 nM at human NK1 receptor (setting [4]) and 1.32 nM in assay [1] (setting [5]).
For `Cc1cc(F)ccc1-c1cc(N2CCC(=O)C2)ncc1N(C)C(=O)C(C)(C)c1cc(C(F)(F)F)cc(C(F)(F)F)c1` [Example 111, 2-(3,5-Bis-trifluoromethyl-phenyl)-N-[4-(4-fluoro-2-methyl-phenyl)-6-(3-oxo-pyrrolidin-1-yl)-pyridin-3-yl]-N-methyl-isobutyramide], the Ki was 2.09 nM on human NK1 receptor (setting [2]) and 4.07 nM in assay [1] (setting [3]).
Turning to `Cc1cc(F)ccc1-c1cc(N2CC[C@H](N)C2)ncc1N(C)C(=O)C(C)(C)c1cc(C(F)(F)F)cc(C(F)(F)F)c1` [Example 103, (S)-N-[6-(3-Amino-pyrrolidin-1-yl)-4-(4-fluoro-2-methyl-phenyl)-pyridin-3-yl]-2-(3,5-bis-trifluoromethyl-phenyl)-N-methyl-isobutyramide], the Ki at human NK1 receptor (setting [2]) is 1.66 nM; in assay [1] (setting [3]), 15.8 nM.
With `CN(C(=O)C(C)(C)c1cc(C(F)(F)F)cc(C(F)(F)F)c1)c1cnc(N2C[C@@H](O)C[C@H]2CO)cc1-c1ccc(Cl)cc1Cl` [Example 236, (2S,4S)-2-(3,5-Bis-trifluoromethyl-phenyl)-N-[4-(2,4-dichloro-phenyl)-6-(4-hydroxy-2-hydroxymethyl-pyrrolidin-1-yl)-pyridin-3-yl]-N-methyl-isobutyramide], the Ki (on human NK1 receptor (setting [4]); in assay [1] (setting [5])) was 1.78 nM throughout.
For the molecule `CC(O)CN(CC(C)O)c1cc(-c2ccccc2Cl)c(N(C)C(=O)C(C)(C)c2cc(C(F)(F)F)cc(C(F)(F)F)c2)cn1` (stereo not shown) [Example 124, N-[6-[Bis-(2-hydroxy-propyl)-amino]-4-(2-chloro-phenyl)-pyridin-3-yl]-2-(3,5-bis-trifluoromethyl-phenyl)-N-methyl-isobutyramide], the Ki at human NK1 receptor (setting [2]) is 2.63 nM; in assay [1] (setting [3]), 13.8 nM.
On to `Cc1cc(F)ccc1-c1cc(N2CCOC[C@H]2CO)ncc1N(C)C(=O)C(C)(C)c1cc(C(F)(F)F)cc(C(F)(F)F)c1` [Example 174, (R)-2-(3,5-Bis-trifluoromethyl-phenyl)-N-[4-(4-fluoro-2-methyl-phenyl)-6-(3-hydroxymethyl-morpholin-4-yl)-pyridin-3-yl]-N-methyl-isobutyramide], for which the Ki on human NK1 receptor (setting [2]) was 1.66 nM; in assay [1] (setting [3]), 2.57 nM.
Regarding `CN(C(=O)C(C)(C)c1cc(C(F)(F)F)cc(C(F)(F)F)c1)c1cnc(NCC(O)CO)cc1-c1ccccc1Cl` (racemic) [Example 78, (RS)-2-(3,5-Bis-trifluoromethyl-phenyl)-N-[4-(2-chloro-phenyl)-6-(2,3-dihydroxy-propylamino)-pyridin-3-yl]-N-methyl-isobutyramide], the Ki on human NK1 receptor (setting [2]) was 2.82 nM; in assay [1] (setting [3]), 6.17 nM.
On to `CN(C(=O)C(C)(C)c1cc(C(F)(F)F)cc(C(F)(F)F)c1)c1cnc(N2C[C@H](O)C[C@H]2CO)cc1-c1ccc(Cl)cc1Cl` [Example 136, (2S,4R)-2-(3,5-Bis-trifluoromethyl-phenyl)-N-[4-(2,4-dichloro-phenyl)-6-(4-hydroxy-2-hydroxymethyl-pyrrolidin-1-yl)-pyridin-3-yl]-N-methyl-isobutyramide], for which the Ki on human NK1 receptor (setting [2]) was 1.62 nM; in assay [1] (setting [3]) it was 1.45 nM.
`Cc1cc(F)ccc1-c1cc(N2CCS(=O)(=O)CC2CO)ncc1N(C)C(=O)C(C)(C)c1cc(C(F)(F)F)cc(C(F)(F)F)c1` (racemic) [Example 177, (RS)-2-(3,5-Bis-trifluoromethyl-phenyl)-N-[4-(4-fluoro-2-methyl-phenyl)-6-(3-hydroxymethyl-1,1-dioxo-1λ^6-thiomorpholin-4-yl)-pyridin-3-yl]-N-methyl-isobutyramide]: the Ki at human NK1 receptor (setting [2]) was 1.2 nM; in assay [1] (setting [3]), 2.63 nM.
In the case of `Cc1ncccc1-c1cc(N2C[C@H](O)C[C@H]2CO)ncc1N(C)C(=O)C(C)(C)c1cc(C(F)(F)F)cc(C(F)(F)F)c1` [Example 233, (2S,4R)-2-(3,5-Bis-trifluoromethyl-phenyl)-N-[6′-(4-hydroxy-2-hydroxymethyl-pyrrolidin-1-yl)-2-methyl-[3,4′]bipyridinyl-3′-yl]-N-methyl-isobutyramide], the Ki on human NK1 receptor (setting [4]) was 0.427 nM; in assay [1] (setting [5]), 3.89 nM.
As for `CC(=O)N[C@H]1CCN(c2cc(-c3ccccc3Cl)c(N(C)C(=O)C(C)(C)c3cc(C(F)(F)F)cc(C(F)(F)F)c3)cn2)C1` [Example 43, (S)-N-[6-(3-Acetylamino-pyrrolidin-1-yl)-4-(2-chloro-phenyl)-pyridin-3-yl]-2-(3,5-bis-trifluoromethyl-phenyl)-N-methyl-isobutyramide], the Ki was 2.4 nM at human NK1 receptor (setting [2]) and 35.5 nM in assay [1] (setting [3]).
In the case of `Cc1ncccc1-c1cc(N2C[C@@H](O)C[C@H]2CO)ncc1N(C)C(=O)C(C)(C)c1cc(C(F)(F)F)cc(C(F)(F)F)c1` [Example 255, (2S,4S)-2-(3,5-Bis-trifluoromethyl-phenyl)-N-[6′-(4-hydroxy-2-hydroxymethyl-pyrrolidin-1-yl)-2-methyl-[3,4′]bipyridinyl-3′-yl]-N-methyl-isobutyramide], the Ki at human NK1 receptor (setting [4]) was 0.955 nM; in assay [1] (setting [5]), 10.7 nM.
Take `Cc1ccc(F)cc1-c1cc(N2C[C@@H](O)C[C@H]2CO)ncc1N(C)C(=O)C(C)(C)c1cc(C(F)(F)F)cc(C(F)(F)F)c1` [Example 250, (2S,4S)-2-(3,5-Bis-trifluoromethyl-phenyl)-N-[4-(5-fluoro-2-methyl-phenyl)-6-(4-hydroxy-2-hydroxymethyl-pyrrolidin-1-yl)-pyridin-3-yl]-N-methyl-isobutyramide]: the Ki on human NK1 receptor (setting [4]) was 1.95 nM; in assay [1] (setting [5]), 2 nM.
Consider `Cc1cc(-c2cc(N3C[C@@H](O)C[C@H]3CO)ncc2N(C)C(=O)C(C)(C)c2cc(C(F)(F)F)cc(C(F)(F)F)c2)ccc1F` [Example 248, (2S,4S)-2-(3,5-Bis-trifluoromethyl-phenyl)-N-[4-(4-fluoro-3-methyl-phenyl)-6-(4-hydroxy-2-hydroxymethyl-pyrrolidin-1-yl)-pyridin-3-yl]-N-methyl-isobutyramide], for which the Ki on human NK1 receptor (setting [4]) was 2.19 nM; in assay [1] (setting [5]) it was 27.5 nM.
